Drawing on patent US8232401B2 (Japan Tobacco Inc., priority 2002, dated 2012), this text covers IC50 for 34 molecules.

The test deals with T1, HIV integrase (Human immunodeficiency virus type 1 group M subtype B, UniProt P12497, F1332H).
T1 construct: HIV integrase full length gene; made in house; host or cells: Escherichia coli BL21(DE3)
The test is described as follows: Determination of enzyme (HIV integrase) inhibitory activity (strand transfer, microtiter plate, absorbance at 450 nm). It counts as biochemical, HIV (Human Immunodeficiency Virus (type 1)). Conditions: recombinant HIV integrase (F185H) expressed in E. coli; donor DNA on streptavidin plate, digoxigenin target DNA; 37° C.
Take `O=C(O)c1cn(CCO)c2ncc(Cc3cccc(Cl)c3Cl)cc2c1=O` [Example 3-86]: the IC50 was determined as 0.14 µM.

As for `Cc1cccc(Cc2ccc3c(c2)c(=O)c(C(=O)O)cn3CCO)c1Cl` [Example 1-79, 6-(2-Chloro-3-methylbenzyl)-1-(2-hydroxyethyl)-4-oxo-1,4-dihydroquinoline-3-carboxylic acid], the IC50 came to 0.077 µM.

Take `CCOc1cc2c(cc1Cc1cccc(Cl)c1F)c(=O)c(C(=O)O)cn2[C@H](CO)C(C)C` [Example 4-30, (S)-6-(3-Chloro-2-fluorobenzyl)-7-ethoxy-1-(1-hydroxymethyl-2-methylpropyl)-4-oxo-1,4-dihydroquinoline-3-carboxylic acid]: the IC50 stood at 0.0029 µM.

`COc1cc(Cc2c(F)ccc(Cl)c2F)cc2c(=O)c(C(=O)O)cn([C@@H](C)CO)c12` [Example 3-57, (S)-6-(3-Chloro-2,6-difluorobenzyl)-1-(2-hydroxy-1-methylethyl)-8-methoxy-4-oxo-1,4-dihydroquinoline-3-carboxylic acid]: the IC50 was determined as 0.015 µM.

For the molecule `O=C(O)c1cn(CCO)c2ccc(Cc3cccc(Cl)c3Cl)c(F)c2c1=O` [Example 4-12, 6-(2,3-Dichlorobenzyl)-5-fluoro-1-(2-hydroxyethyl)-4-oxo-1,4-dihydroquinoline-3-carboxylic acid], the IC50 was 0.065 µM.

On to `COC(=O)c1cn(CCO)c2ccc(Cc3cccc(Cl)c3Cl)cc2c1=O` [Example 1-12, 6-(2,3-Dichlorobenzyl)-1-(2-hydroxyethyl)-4-oxo-1,4-dihydroquinoline-3-carboxylic acid methyl ester], for which the half-maximal inhibitory concentration (IC50) was found to be 0.71 µM.

In the case of `CC(C)Oc1cc(Cc2cccc(Cl)c2F)cc2c(=O)c(C(=O)O)cn([C@@H](C)CO)c12` [Example 4-16, (S)-6-(3-Chloro-2-fluorobenzyl)-1-(2-hydroxy-1-methylethyl)-8-isopropyloxy-4-oxo-1,4-dihydroquinoline-3-carboxylic acid], the half-inhibitory concentration (IC50) turned out to be 0.0071 µM.

As for `COc1cc(Cc2cccc(Cl)c2Cl)cc2c(=O)c(C(=O)O)cn(CCO)c12` [Example 3-14, 6-(2,3-Dichlorobenzyl)-1-(2-hydroxyethyl)-8-methoxy-4-oxo-1,4-dihydroquinoline-3-carboxylic acid], the IC50 stood at 0.014 µM.

In the case of `CCOc1cc2c(cc1Cc1cccc(Cl)c1F)c(=O)c(C(=O)O)cn2[C@H](CO)C1CCCCC1` [Example 4-43, (S)-6-(3-Chloro-2-fluorobenzyl)-1-(1-cyclohexyl-2-hydroxyethyl)-7-ethoxy-4-oxo-1,4-dihydroquinoline-3-carboxylic acid], the IC50 came out at 0.0028 µM.

Turning to `O=C(O)c1cn(CCCc2ccccc2)c2ccc(Cc3cccc(Cl)c3Cl)cc2c1=O` [Example 1-17, 6-(2,3-Dichlorobenzyl)-1-(3-phenylpropyl)-4-oxo-1,4-dihydroquinoline-3-carboxylic acid], the IC50 stood at 0.084 µM.

With `CS(=O)(=O)c1ccc(Cl)c(Cc2ccc3c(c2)c(=O)c(C(=O)O)cn3CCO)c1` [Example 4-1, 6-(2-Chloro-5-methanesulfonylbenzyl)-1-(2-hydroxyethyl)-4-oxo-1,4-dihydroquinoline-3-carboxylic acid], the IC50 is 0.86 µM.

In the case of `CC(C)Oc1cc(Cc2cccc(Cl)c2F)cc2c(=O)c(C(=O)O)cn([C@H](CO)C(C)(C)C)c12` [Example 4-26, (S)-6-(3-Chloro-2-fluorobenzyl)-[2,2-dimethyl-1-(hydroxymethyl)propyl]-8-isopropyloxy-4-oxo-1,4-dihydroquinoline-3-carboxylic acid], the IC50 stood at 0.0015 µM.

Turning to `NC(=O)Cn1cc(C(=O)O)c(=O)c2cc(Cc3cccc(Cl)c3Cl)ccc21` [Example 1-7, 1-Carbamoylmethyl-6-(2,3-Dichlorobenzyl)-4-oxo-1,4-dihydroquinoline-3-carboxylic acid], the IC50 is 0.067 µM.

For the molecule `COc1cc(Cc2cccc(Cl)c2F)cc2c(=O)c(C(=O)O)cn([C@H](CO)C(C)C)c12` [Example 4-46, (S)-6-(3-Chloro-2-fluorobenzyl)-1-(1-hydroxymethyl-2-methylpropyl)-8-methoxy-4-oxo-1,4-dihydroquinoline-3-carboxylic acid], the IC50 was 0.005 µM.

In the case of `O=C(O)c1cn(CCO)c2ccc(Cc3ccccc3OC(F)(F)F)cc2c1=O` [Example 1-93, 1-(2-Hydroxyethyl)-4-oxo-6-(2-trifluoromethyloxybenzyl)-1,4-dihydroquinoline-3-carboxylic acid], the IC50 is 0.37 µM.

As to `O=C(O)c1cn([C@H](CO)CC2CCCCC2)c2ccc(Cc3cccc(Cl)c3F)cc2c1=O` [Example 4-22, (S)-6-(3-Chloro-2-fluorobenzyl)-1-[2-cyclohexyl-1-(hydroxymethyl)ethyl]-4-oxo-1,4-dihydroquinoline-3-carboxylic acid], the IC50 worked out at 0.0029 µM.

Take `CNS(=O)(=O)Cn1cc(C(=O)O)c(=O)c2cc(Cc3c(F)cccc3Cl)ccc21` [Example 1-76, 6-(2-Chloro-6-fluorobenzyl)-1-methylsulfamoylmethyl-4-oxo-1,4-dihydroquinoline-3-carboxylic acid]: the IC50 came to 0.028 µM.

As to `COc1cc2c(cc1Cc1cccc(Cl)c1F)c(=O)c(C(=O)O)cn2[C@H](CO)C1CCCCC1` [Example 4-42, (S)-6-(3-Chloro-2-fluorobenzyl)-1-(1-cyclohexyl-2-hydroxyethyl)-7-methoxy-4-oxo-1,4-dihydroquinoline-3-carboxylic acid], the IC50 is 0.0023 µM.

Consider `Cc1ccc(Cl)c(Cc2ccc3c(c2)c(=O)c(C(=O)O)cn3CCO)c1` [Example 1-97, 6-(2-Chloro-5-methylbenzyl)-1-(2-hydroxyethyl)-4-oxo-1,4-dihydroquinoline-3-carboxylic acid], for which the IC50 turned out to be 0.13 µM.

On to `CCOc1cc2c(cc1Cc1cccc(Cl)c1F)c(=O)c(C(=O)O)cn2[C@H](CO)C(C)(C)C` [Example 4-31, (S)-6-(3-Chloro-2-fluorobenzyl)-7-ethoxy-1-[2,2-dimethyl-1-(hydroxymethyl)propyl]-4-oxo-1,4-dihydroquinoline-3-carboxylic acid], for which the IC50 came out at 0.0021 µM.

With `O=C(O)c1cn(CCO)c2ccc(Cc3cc(Br)ccc3Cl)cc2c1=O` [Example 4-7, 6-(5-Bromo-2-chlorobenzyl)-1-(2-hydroxyethyl)-4-oxo-1,4-dihydroquinoline-3-carboxylic acid], the IC50 is 0.13 µM.

In the case of `CC[C@@H](CO)n1cc(C(=O)O)c(=O)c2cc(Cc3cccc(Cl)c3F)ccc21` [Example 3-60, (S)-6-(3-Chloro-2-fluorobenzyl)-1-[1-(hydroxymethyl)propyl]-4-oxo-1,4-dihydroquinoline-3-carboxylic acid], the IC50 stood at 0.0055 µM.

As for `NC(=O)CCn1cc(C(=O)O)c(=O)c2cc(Cc3cccc(Cl)c3Cl)ccc21` [Example 1-13, 1-(2-Carbamoylethyl)-6-(2,3-dichlorobenzyl)-4-oxo-1,4-dihydroquinoline-3-carboxylic acid], the half-inhibitory concentration (IC50) was 0.14 µM.

Regarding `NS(=O)(=O)Cn1cc(C(=O)O)c(=O)c2cc(Cc3cccc(Cl)c3Cl)ccc21` [Example 1-9, 6-(2,3-Dichlorobenzyl)-4-oxo-1-sulfamoylmethyl-1,4-dihydroquinoline-3-carboxylic acid], the IC50 worked out at 0.017 µM.

Consider `CCNc1cc(Cc2cccc(Cl)c2F)cc2c(=O)c(C(=O)O)cn(CCO)c12` [Example 3-55, 6-(3-Chloro-2-fluorobenzyl)-8-ethylamino-1-(2-hydroxyethyl)-4-oxo-1,4-dihydroquinoline-3-carboxylic acid], for which the IC50 came to 0.0087 µM.

Turning to `O=C(O)c1cn(CC2CCCC2)c2ccc(Cc3cccc(Cl)c3Cl)cc2c1=O` [Example 1-40, 1-Cyclopentylmethyl-6-(2,3-dichlorobenzyl)-4-oxo-1,4-dihydroquinoline-3-carboxylic acid], the IC50 was 0.11 µM.

Take `CCC[C@@H](CO)n1cc(C(=O)O)c(=O)c2cc(Cc3cccc(Cl)c3F)cc(OC(C)C)c21` [Example 4-47, (S)-6-(3-Chloro-2-fluorobenzyl)-1-[1-(hydroxymethyl)butyl]-8-isopropyloxy-4-oxo-1,4-dihydroquinoline-3-carboxylic acid]: the IC50 amounted to 0.0023 µM.

For `O=C(O)c1cn(CCO)c2c(Oc3ccccc3)cc(Cc3cccc(Cl)c3F)cc2c1=O` [Example 3-52, 6-(3-Chloro-2-fluorobenzyl)-1-(2-hydroxyethyl)-4-oxo-8-phenoxy-1,4-dihydroquinoline-3-carboxylic acid], the IC50 was 0.012 µM.

Consider `COc1c(Cc2cccc(Cl)c2F)cc2c(=O)c(C(=O)O)cn(CCO)c2c1OC` [Example 3-45, 6-(3-Chloro-2-fluorobenzyl)-7,8-dimethoxy-1-(2-hydroxyethyl)-4-oxo-1,4-dihydroquinoline-3-carboxylic acid], for which the IC50 amounted to 0.015 µM.

On to `C[C@@H](CO)n1cc(C(=O)O)c(=O)c2cc(Cc3cccc(Cl)c3F)ccc21` [Example 3-23, (S)-6-(3-Chloro-2-fluorobenzyl)-1-(2-hydroxy-1-methylethyl)-4-oxo-1,4-dihydroquinoline-3-carboxylic acid], for which the half-maximal inhibitory concentration (IC50) stood at 0.0072 µM.

With `CSc1ccc(Cl)c(Cc2ccc3c(c2)c(=O)c(C(=O)O)cn3CCO)c1` [Example 1-92, 6-(2-Chloro-5-methylsulfanylbenzyl)-1-(2-hydroxyethyl)-4-oxo-1,4-dihydroquinoline-3-carboxylic acid], the IC50 was 0.28 µM.

On to `CNS(=O)(=O)Cn1cc(C(=O)O)c(=O)c2cc(Cc3cccc(Cl)c3Cl)ccc21` [Example 1-71, 6-(2,3-Dichlorobenzyl)-1-methylsulfamoylmethyl-4-oxo-1,4-dihydroquinoline-3-carboxylic acid], for which the IC50 was 0.013 µM.

Regarding `CN(C)S(=O)(=O)Cn1cc(C(=O)O)c(=O)c2cc(Cc3cccc(Cl)c3Cl)ccc21` [Example 1-72, 6-(2,3-Dichlorobenzyl)-1-dimethylsulfamoylmethyl-4-oxo-1,4-dihydroquinoline-3-carboxylic acid], the IC50 came out at 0.025 µM.

Regarding `O=C(O)c1cn(CCO)c2cc(C(F)(F)F)c(Cc3cccc(Cl)c3Cl)cc2c1=O` [Example 3-22, 6-(2,3-Dichlorobenzyl)-1-(2-hydroxyethyl)-4-oxo-7-trifluoromethyl-1,4-dihydroquinoline-3-carboxylic acid], the IC50 came out at 0.79 µM.
